This note sets out measurements from ChEMBL document CHEMBL3124853, “Synthesis and anti-Candidal activity of N-(4-aryl/cyclohexyl)-2-(pyridine-4-yl carbonyl) hydrazinecarbothioamide” (Bioorg Med Chem Lett, 2014).

The test system of experiment [1] is Candida. The experiment can be described thus: Antifungal activity against Candida sp. clinical isolate 11972 derived from high vaginal swabs by microbroth dilution method. Type of experiment: functional. A general note: Dilution methods test growth across graded concentrations, often in twofold steps.
The next experiment concerns Candida parapsilosis. The experiment can be described thus: Antifungal activity against Candida parapsilosis ATCC 22019 by microbroth dilution method. Type of experiment: functional. The following applies: Lodderomyces parapsilosis.
Experiment [2] deals with Candida. The experiment can be described thus: Antifungal activity against Candida sp. clinical isolate 12810 derived from blood by microbroth dilution method. Type of experiment: functional.
The subject of experiment [3] is Candida. Briefly: Antifungal activity against Candida sp. clinical isolate 12485 derived from urine by microbroth dilution method. Type of experiment: functional. The note with it: clinical isolate 12485, Urine.
For a further experiment, the system named is Candida albicans. The experiment can be described thus: Antifungal activity against Candida albicans ATCC 66027 by microbroth dilution method. Type of experiment: functional.
Experiment [4] has as its system Candida. Briefly: Antifungal activity against Candida sp. clinical isolate 178 derived from high vaginal swabs by microbroth dilution method. Type of experiment: functional.
Experiment [5] in a line: Cytotoxicity against human MCF10A cells after 48 hrs by WST1 assay. Type of experiment: cell-based. The following applies: MCF-10A.
Experiment [6] concerns Candida. Briefly: Antifungal activity against Candida sp. clinical isolate 300 derived from urine by microbroth dilution method. The note with it: clinical isolate 300, Urine. Type of experiment: functional.
In experiment [7] the test system is Candida. Briefly: Antifungal activity against Candida sp. clinical isolate 12341 derived from urine by microbroth dilution method. Type of experiment: functional. The following applies: clinical isolate 12341, Urine.
Experiment [8] has as its system Candida. The experiment can be described thus: Antifungal activity against Candida sp. clinical isolate 13184 derived from high vaginal swabs by microbroth dilution method. Type of experiment: functional.
The test system of a further experiment is Candida tropicalis. The experiment can be described thus: Antifungal activity against Candida tropicalis ATCC 66029 by microbroth dilution method. Type of experiment: functional.

In brackets after ≈: the same amount, converted by molar mass.

The MIC is the lowest concentration found to suppress growth. The low end stands for a more susceptible organism, the high end for a less susceptible organism. As usually defined, the IC50 is the midpoint of a concentration-inhibition curve. The low end stands for inhibition by little substance, the high end for a need for much substance. For the molecule `Cc1ccccc1N=C(S)NNC(=O)c1ccncc1`, the minimum inhibitory concentration (MIC) in the experiment on Candida [1], in the experiment on Candida parapsilosis, with Candida [2], with Candida [3], against Candida albicans and in the experiment with Candida [4] was greater than 50 µg/mL each time. The minimal inhibitory concentration (MIC) in the experiment on Candida [6], in the experiment on Candida [7], in the experiment on Candida [8] and with Candida tropicalis was greater than 50 µg/mL throughout. In addition, the IC50 in [5] is greater than 300 µM.

Consider `O=C(NNC(=S)Nc1ccc([N+](=O)[O-])cc1)c1ccncc1`, for which the MIC in the experiment with Candida [1], against Candida parapsilosis, in the experiment on Candida [2], with Candida [3], in the experiment on Candida albicans and against Candida [4] was greater than 50 µg/mL throughout. Besides, the MIC in the experiment with Candida [6], in the experiment with Candida [7], with Candida [8] and against Candida tropicalis was greater than 50 µg/mL throughout. Further, the IC50 in experiment [5] is greater than 300 µM.

As to `O=C(NNC(=S)Nc1cccc(Cl)c1)c1ccncc1`, the minimal inhibitory concentration (MIC) against Candida [1] turned out to be 0.39 µg/mL (≈ 1.27 µM); with Candida parapsilosis, 0.78 µg/mL (≈ 2.54 µM); with Candida [2], 0.09 µg/mL (≈ 0.293 µM); in the experiment with Candida [3], 6.25 µg/mL (≈ 20.4 µM); in the experiment on Candida albicans, 0.19 µg/mL (≈ 0.619 µM); in the experiment on Candida [4], 6.25 µg/mL (≈ 20.4 µM). Also, the minimal inhibitory concentration (MIC) is 0.78 µg/mL (≈ 2.54 µM) against Candida [6], 0.78 µg/mL (≈ 2.54 µM) against Candida [7], 6.25 µg/mL (≈ 20.4 µM) against Candida [8] and 1.6 µg/mL (≈ 5.22 µM) in the experiment on Candida tropicalis. The molecule also showed a half-inhibitory concentration (IC50) in experiment [5] greater than 300 µM.

`O=C(NNC(=S)Nc1ccc(S(=O)(=O)Nc2ncccn2)cc1)c1ccncc1`: the minimum inhibitory concentration (MIC) in the experiment on Candida [1], in the experiment on Candida parapsilosis, against Candida [2], in the experiment on Candida [3], in the experiment on Candida albicans and against Candida [4] was greater than 50 µg/mL throughout. For the same molecule, the MIC in the experiment on Candida [6], with Candida [7], against Candida [8] and in the experiment on Candida tropicalis was greater than 50 µg/mL throughout. The molecule further yielded a concentration for half-maximal inhibition (IC50) in experiment [5] greater than 300 µM.

On to `COc1ccccc1N=C(S)NNC(=O)c1ccncc1`, for which the MIC with Candida [1], in the experiment on Candida parapsilosis, in the experiment with Candida [2], in the experiment on Candida [3], against Candida albicans and in the experiment on Candida [4] was greater than 50 µg/mL each time. Besides, the MIC in the experiment on Candida [6], with Candida [7], against Candida [8] and with Candida tropicalis was greater than 50 µg/mL each time. This molecule yielded an IC50 in experiment [5] greater than 300 µM.

With `O=C(NNC(=S)Nc1ccc(I)cc1)c1ccncc1`, the minimal inhibitory concentration (MIC) in the experiment with Candida [1] came to 0.19 µg/mL (≈ 0.477 µM); against Candida parapsilosis it was 0.19 µg/mL (≈ 0.477 µM); with Candida [2], 0.39 µg/mL (≈ 0.979 µM); against Candida [3], 0.78 µg/mL (≈ 1.96 µM); against Candida albicans it was 0.39 µg/mL (≈ 0.979 µM); in the experiment on Candida [4], 0.09 µg/mL (≈ 0.226 µM). Further, the minimal inhibitory concentration (MIC) in the experiment with Candida [6] was 1.6 µg/mL (≈ 4.02 µM); against Candida [7] it was 0.19 µg/mL (≈ 0.477 µM); against Candida [8], 1.6 µg/mL (≈ 4.02 µM); in the experiment with Candida tropicalis it was 0.19 µg/mL (≈ 0.477 µM). Further, in [5], the IC50 was greater than 300 µM.

Take `CCc1cccc(NC(=S)NNC(=O)c2ccncc2)c1`: the minimum inhibitory concentration (MIC) in the experiment with Candida [1], with Candida parapsilosis, against Candida [2], against Candida [3], with Candida albicans and against Candida [4] was greater than 50 µg/mL throughout. The MIC against Candida [6], against Candida [7], with Candida [8] and in the experiment on Candida tropicalis was greater than 50 µg/mL each time. In [5], this molecule registered a concentration for half-maximal inhibition (IC50) greater than 300 µM.

Take `COc1cccc(NC(=S)NNC(=O)c2ccncc2)c1`: the minimum inhibitory concentration (MIC) with Candida [1], in the experiment on Candida parapsilosis, in the experiment with Candida [2], with Candida [3], with Candida albicans and with Candida [4] was greater than 50 µg/mL in each case. Besides, the minimal inhibitory concentration (MIC) in the experiment with Candida [6], in the experiment with Candida [7], against Candida [8] and in the experiment with Candida tropicalis was greater than 50 µg/mL in each case. Further, the IC50 in experiment [5] was greater than 300 µM.

For `Cc1ccc(NC(=S)NNC(=O)c2ccncc2)cc1`, the minimum inhibitory concentration (MIC) with Candida [1], in the experiment on Candida parapsilosis, against Candida [2], with Candida [3], in the experiment with Candida albicans and in the experiment on Candida [4] was greater than 50 µg/mL in each case. Moreover, the MIC in the experiment on Candida [6], in the experiment with Candida [7], against Candida [8] and against Candida tropicalis was greater than 50 µg/mL throughout. Moreover, half-maximal inhibition in experiment [5] (IC50) required 229 µM.

`Cc1cccc(C)c1NC(=S)NNC(=O)c1ccncc1`: the minimum inhibitory concentration (MIC) in the experiment with Candida [1] was 12.5 µg/mL (≈ 41.6 µM); against Candida parapsilosis it was 0.78 µg/mL (≈ 2.6 µM); against Candida [2], 1.6 µg/mL (≈ 5.33 µM); against Candida [3], 6.25 µg/mL (≈ 20.8 µM); in the experiment on Candida albicans, 0.78 µg/mL (≈ 2.6 µM); with Candida [4], 6.25 µg/mL (≈ 20.8 µM). For the same molecule, the MIC against Candida [6] amounted to 0.78 µg/mL (≈ 2.6 µM); against Candida [7] it was 6.25 µg/mL (≈ 20.8 µM); against Candida [8], 6.25 µg/mL (≈ 20.8 µM); with Candida tropicalis it was 0.78 µg/mL (≈ 2.6 µM). In experiment [5], this molecule had an IC50 greater than 300 µM.

Take `CC(=O)Nc1ccc(NC(=S)NNC(=O)c2ccncc2)cc1`: the minimum inhibitory concentration (MIC) worked out at 0.78 µg/mL (≈ 2.37 µM) against Candida [1]; 0.19 µg/mL (≈ 0.577 µM) against Candida parapsilosis; 1.6 µg/mL (≈ 4.86 µM) against Candida [2]; 1.6 µg/mL (≈ 4.86 µM) with Candida [3]; 0.39 µg/mL (≈ 1.18 µM) in the experiment on Candida albicans; 0.19 µg/mL (≈ 0.577 µM) in the experiment on Candida [4]. Also, the MIC came to 1.6 µg/mL (≈ 4.86 µM) in the experiment on Candida [6], 1.6 µg/mL (≈ 4.86 µM) in the experiment with Candida [7], 1.6 µg/mL (≈ 4.86 µM) with Candida [8] and 0.19 µg/mL (≈ 0.577 µM) against Candida tropicalis. In experiment [5], this molecule came in with a 50% inhibitory concentration (IC50) greater than 300 µM.

In experiment [5], `O=C(O)c1cn(C2CC2)c2cc(N3CCNCC3)c(F)cc2c1=O` [CIPROFLOXACIN] had a concentration for half-maximal inhibition (IC50) greater than 300 µM.

For `Cc1cccc(NC(=S)NNC(=O)c2ccncc2)c1`, the MIC in the experiment on Candida [1], in the experiment on Candida parapsilosis, against Candida [2], with Candida [3], against Candida albicans and against Candida [4] was greater than 50 µg/mL each time. Moreover, the minimum inhibitory concentration (MIC) in the experiment with Candida [6], with Candida [7], against Candida [8] and against Candida tropicalis was greater than 50 µg/mL in each case. For the same molecule, the IC50 in [5] was greater than 300 µM.

Regarding `CCOc1ccc(NC(=S)NNC(=O)c2ccncc2)cc1`, the minimum inhibitory concentration (MIC) in the experiment with Candida [1], against Candida parapsilosis, with Candida [2], with Candida [3], against Candida albicans and in the experiment on Candida [4] was greater than 50 µg/mL throughout. The minimal inhibitory concentration (MIC) in the experiment on Candida [6], in the experiment with Candida [7], with Candida [8] and in the experiment with Candida tropicalis was greater than 50 µg/mL each time. In experiment [5], this molecule gave a 50% inhibitory concentration (IC50) greater than 300 µM.

As for `O=C(NNC(=S)NC1CCCCC1)c1ccncc1`, the MIC with Candida [1], in the experiment on Candida parapsilosis, with Candida [2], against Candida [3], in the experiment with Candida albicans and with Candida [4] was greater than 50 µg/mL throughout. The minimal inhibitory concentration (MIC) with Candida [6], in the experiment with Candida [7], against Candida [8] and against Candida tropicalis was greater than 50 µg/mL in each case. In experiment [5], the concentration for half-maximal inhibition (IC50) is greater than 300 µM.

In the case of `COc1ccc(NC(=S)NNC(=O)c2ccncc2)cc1`, the minimum inhibitory concentration (MIC) in the experiment on Candida [1], against Candida parapsilosis, against Candida [2], against Candida [3], against Candida albicans and in the experiment with Candida [4] was greater than 50 µg/mL throughout. Besides, the MIC against Candida [6], in the experiment with Candida [7], against Candida [8] and in the experiment on Candida tropicalis was greater than 50 µg/mL in each case. The molecule further yielded a half-maximal inhibitory concentration (IC50) in [5] of 47.5 µM.
